Data reported in patent US4264492A, “Enkephalin-like compounds in bovine adrenal medulla” (Hoffmann-La Roche Inc., priority 1979, dated 1981).
Several values for one entry are separate records, joined by “and”; a condition that tells them apart may be missing. Identical values can stand only once.

How the values were obtained:
[1] = tested on: mice; assay: Analgesic assay, tail flick response after intracerebral ventrical injection; assay type: in vivo; details: individual mouse
[2] = tested on: N-terminal directed Met-enkephalin antibody; assay: Radioimmunoassay, N-terminal directed antibody; assay type: binding; details: fractions from RP-18; 1.3 g wet weight of chromaffin granules isolated from 30 g of adrenal medulla
Description: (§1) Bovine adrenal glands were obtained from a local slaughterhouse and stored on ice until used (2 hrs). The medullas were dissected out and chromaffin granules prepared by the procedure of Smith and Winkler [Biochem. J., 103, & 80 (1967)]. The isolated chromaffin granules or whole adrenal medullas were homogenized (10:1 V/W) in 1 M acetic acid, 20 mM HCl containing 1μg/ml PMSF and pepstatin. The procedures for extraction, Sephadex column elution and trypsin digestion have been described [Lewis, R. V. et al., Proc. Nat'l. Acad. Sci., U.S.A. 75, & 021 (1978)]. The radioreceptor assay employed neuroblastoma x glioma hybrid cells [Gerber, L. D. et al., Brain Res. 1515, 117 (1978)] with ^3 H-Leuenkephalin as the competing ligand. Radioimmunoassays were performed using a C-terminal directed Leu-enkephalin antibody and a N-terminal directed Met-enkephalin antibody. The characteristics of these antibodies have been described previously [Lewis. R. V., et al. Biochem. Biophys. Res. Commun. 89, 822 (1979)] .
(§2) In order to determine whether fractions 6,7, and 16 were indeed separate entities differing chromatographically from the enkephalins, these fractions were lyophilized, redissolved and rechromatographed. Each opioid peptide eluted at its original position. […]

[3] = tested on: mice; details: intracerebraventricular or intravenous administration to mice; cited from earlier work
[4] = tested on: rats; details: intracerebraventricular or intravenous administration to rats; cited from earlier work
[5] = tested on: C-terminal directed Leu-enkephalin antibody; assay: Radioimmunoassay, C-terminal directed antibody; assay type: binding; details: fractions from RP-18; 1.3 g wet weight of chromaffin granules isolated from 30 g of adrenal medulla
Description: as §1, §2

Substance	Response ([1]; Dose 4.5nm, Volume 5nl)	Tail flick response, Post Injection Time 20 ([1]; Dose 4.5nm, Volume 5nl)	Radioimmunoassay N-Terminal [2] [nmoles/fraction]	Response ([1]; Dose 120 nm, Volume 10nl.)	Tail flick response, Post Injection Time 10 ([1]; Dose 120 nm, Volume 10nl.)	Tail flick response, Post Injection Time 2 min. ([1]; Dose 120 nm, Volume 10nl.)	analgesia [3]	analgesia [4]	Radioimmunoassay C-Terminal [5] [nmoles/fraction]
Beta-endorphin (YGGFMTSEKSQTPLVTLFKNAIIKNAYKKGE; Beta-endorphin; UniProt P01189 237-267, looked up)	Pos. and Neg.	8							
methionine enkephalin [Met Enk]			1.0	Neg.	6.3 and 5.9 and 5.0	4.0 and 4.7	weak and short lined anagesia	weak and short lined anagesia	0.03
Leu-enkephalin [Leu-enk (std)]			0.4				weak and short lined anagesia	weak and short lined anagesia	1.0
